# Test results reported in US20010014676A1, “Immunosuppressive compositions” (priority 1990, published 2001).
# Test system: Lewis-Brown Norway F1 Hybrid cardiac allografts in Lewis recipients
# Assay: acute cardiac allograft rejection model (procedure of Kupiec-Weglinski)
# Assay type: in vivo, rat
# Conditions: for GRAFT SURVIVAL MEAN ± SD: N=7
# Method: The therapeutic efficacy of a pharmaceutical composition of the invention was tested according to the procedure of Kupiec-Weglinski, J. W., et al., (1988) Transplant Proc. 20:207-216 (hereinafter “Kupiec-Weglinski”) to determine its in vivo potency as an acute transplantation/graft rejection modulator.
# Briefly, to preform these experiments, the following protocol was employed. Male inbred adult rats (Lewis-Brown Norway F1 Hybrid rats, obtained from Harlan sprague—Dawley Inc., Indianapolis, Ind.) were used. Lewis-Brown Norway F1 Hybrid cardiac allografts were transplanted to the abdominal great vessels of Lewis recipients. The animals were administered compounds according to the following five distinct regimens.
# Protocol I. Pretreatment Protocol—20 mg/kg/day of Compound A was administered orally for 7 consecutive days prior to transplantation (days −7 to −1).
# Protocol II Treatment Protocol—20 mg/kg/day of Compound A was administered orally for 7 consecutive post-transplant days (days 0-6) followed by intermittent 5 day courses (days 9-13 and 16-20).
# Protocol III Pretreatment and Treatment Protocol—20 mg/kg/day of Compound A was administered orally for 7 consecutive days prior to transplantation (days −7 to −1) followed by intermittent 5 day courses (days 9-13 and 16-20).
# Ventricular contractions were assessed daily by palpation through the recipient flank. Rejection was defined as the day of cessation of myocardial contractions and confirmed histologically.
compound,measurement,setting,value
"CCCC1(CCC)CCC2(CCN(CCCN(C)C)C2)CC1 [Compound A, N,N-dimethyl-8,8-dipropyl-2-azaspiro [4,5]-decane-2-propanamine]",average graft survival time,"Compound A alone (pretreatment, treatment or pretreatment and treatment protocol), untreated average 7 days",16 days
same,GRAFT SURVIVAL MEAN ± SD,"Protocol I pretreatment: Compound A 20 mg/kg/day orally, days -7 to -1",14.7 ± 5.8 days
same,GRAFT SURVIVAL MEAN ± SD,"Protocol II treatment: Compound A 20 mg/kg/day orally, days 0-6, then days 9-13 and 16-20",16.7 ± 2.0 days
same,GRAFT SURVIVAL MEAN ± SD,"Protocol III pretreatment and treatment: Compound A 20 mg/kg/day orally, days -7 to -1, then days 9-13 and 16-20",16.0 ± 4.3 days
same,graft survival time (transplants routinely retained),"combination protocol: Compound A 20 mg/kg/day orally plus cyclosporin A […] by injection, days 0-6",over 40 days
